Reference: patent US20250195530A1, “POLQ INHIBITORS” (ASTRAZENECA AB, priority 2022, published 2025)
Where two headings read alike, the source gives them in different places.

Key:
[1] = system: DLD-1 cells; test: Inhibition of proliferation, DLD-1 BRCA2 wt control (Cell Titre Glo 3D); assay type: cell-based; settings: Homo sapiens
Method in brief: (§1)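 Wild-type DLD-1 serves as the control for non-specific toxicity, and BRCA2-null DLD-1 as the homologous-recombination-deficient line. Both grew with compound from 10 μM down to 0.51 nM, re-dosed after 6 days. Luminescent ATP content (CellTiter-Glo 3D) was read after 7 or 12 days, respectively, to give IC50 values.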

[2] = system: DLD-1 BRCA2−/− cells; test: Homologous recombination synthetic lethal inhibition of proliferation, DLD-1 BRCA2-/- (Cell Titre Glo 3D); assay type: cell-based; settings: Homo sapiens
Method in brief: as §1

[3] = DLD-1, second proliferation column, DLD-1 BRCA2 wt control, read-out: POLQ PD Prolif Lumin (converted)
[4] = DLD-1, first proliferation column, DLD-1 BRCA2-/-, read-out: POLQ PD Prolif Lumin (converted)
[5] = DLD-1, DLD1 BRCA2 wt, mean, read-out: POLQ PD Prolif Lumin DLD1 mean pIC50 (converted)
[6] = DLD-1, DLD-1 BRCA2 −/−, mean, read-out: POLQ PD Prolif Lumin BRCA2 −/− mean pIC50 (converted)

| Structure (SMILES) | IC50 [1, 3] [nM] | IC50 [1, 5] [nM] | IC50 [2, 4] [nM] | IC50 [2, 6] [nM] |
| --- | --- | --- | --- | --- |
| Cc1cc(C)nc(Cn2c(-c3ccc(OCCN4CCNCC4)cc3Cl)nc3c(OC4(C)CC4)ncnc32)c1 [Example T595, 8-(2-chloro-4-(2-(piperazin-1-yl)ethoxy)phenyl)-9-((4,6-dimethylpyridin-2-yl)methyl)-6-(1-methylcyclopropoxy)-9H-purine] | > 10000 | – | 1260 | – |
| Cc1cnc(Cn2c(-c3ccc(OCCN4CCNCC4)cc3Cl)nc3c(OC4(C)CC4)ncnc32)cc1C [Example T596, 8-(2-chloro-4-(2-(piperazin-1-yl)ethoxy)phenyl)-9-((4,5-dimethylpyridin-2-yl)methyl)-6-(1-methylcyclopropoxy)-9H-purine] | > 10000 | – | 5010 | – |
| Cc1ccnc(Cn2c(-c3ccc(OCCN4CCNCC4)cc3Cl)nc3c(OC4(C)CC4)ncnc32)c1C [Example T597, 8-(2-chloro-4-(2-(piperazin-1-yl)ethoxy)phenyl)-9-((3,4-dimethylpyridin-2-yl)methyl)-6-(1-methylcyclopropoxy)-9H-purine] | 6310 | – | 2510 | – |
| Cc1ccnc(Cn2c(-c3ccc(CC(=O)N4C[C@@H](C)N[C@@H](C)C4)cc3Cl)nc3c(OC4(C)CC4)ncnc32)c1 [Example T606, 2-(3-chloro-4-(6-(1-methylcyclopropoxy)-9-((4-methylpyridin-2-yl)methyl)-9H-purin-8-yl)phenyl)-1-((3R,5S)-3,5-dimethylpiperazin-1-yl)ethan-1-one] | > 10000 | – | 794 | – |
| Cc1ccnc(Cn2c(-c3ccc(OCCN4CCNCC4)cc3Cl)nc3c(OC(C)(C)C)cccc32)c1 [Example T609, 4-(tert-butoxy)-2-(2-chloro-4-(2-(piperazin-1-yl)ethoxy)phenyl)-1-((4-methylpyridin-2-yl)methyl)-1H-benzo[d]imidazole] | > 10000 | – | 1580 | – |
| COCc1cc(OCCN2CCN(C)CC2)ccc1-c1nc2c(OC3(C)CC3)ncnc2n1Cc1ccccc1 [Example T612, 9-benzyl-8-(2-(methoxymethyl)-4-(2-(4-methylpiperazin-1-yl)ethoxy)phenyl)-6-(1-methylcyclopropoxy)-9H-purine] | > 10000 | – | 1000 | – |

Second part, led by results:

| IC50 [1, 3] [nM] | IC50 [1, 5] [nM] | Structure (SMILES) | IC50 [2, 4] [nM] | IC50 [2, 6] [nM] |
| --- | --- | --- | --- | --- |
| – | > 6310 | C[C@@H](CCOc1ccc(-c2nc3c(OC4(C)CC4)ncnc3n2Cc2cccc(C#N)c2)c(Cl)c1)C(=O)O [Example U8, (S)-4-(3-chloro-4-(9-(3-cyanobenzyl)-6-(1-methylcyclopropoxy)-9H-purin-8-yl)phenoxy)-2-methylbutanoic acid] | – | 398 |
| – | > 10000 | C[C@H](CCOc1ccc(-c2nc3c(OC4(C)CC4)ncnc3n2Cc2cc(Cl)ccc2F)c(Cl)c1)C(=O)O [Example U10, (R)-4-(3-chloro-4-(9-(5-chloro-2-fluorobenzyl)-6-(1-methylcyclopropoxy)-9H-purin-8-yl)phenoxy)-2-methylbutanoic acid] | – | 63.1 |
| – | > 6310 | C[C@@H](CCOc1ccc(-c2nc3c(OC4(C)CC4)ncnc3n2Cc2cc(Cl)ccc2F)c(Cl)c1)C(=O)O [Example U11, (S)-4-(3-chloro-4-(9-(5-chloro-2-fluorobenzyl)-6-(1-methylcyclopropoxy)-9H-purin-8-yl)phenoxy)-2-methylbutanoic acid] | – | 50.1 |
| – | > 10000 | CC1(Oc2ncnc3c2nc(-c2cccc(OCCOCC(=O)O)c2Cl)n3Cc2cc(Cl)ccc2F)CC1 [Example U22, 2-(2-(2-chloro-3-(9-(5-chloro-2-fluorobenzyl)-6-(1-methylcyclopropoxy)-9H-purin-8-yl)phenoxy)ethoxy)acetic acid] | – | 50.1 |
| – | > 10000 | C[C@@H](CCOc1cccc(-c2nc3c(OC4(C)CC4)ncnc3n2Cc2cc(Cl)ccc2F)c1Cl)C(=O)O [Example U24, (S)-4-(2-chloro-3-(9-(5-chloro-2-fluorobenzyl)-6-(1-methylcyclopropoxy)-9H-purin-8-yl)phenoxy)-2-methylbutanoic acid] | – | 12.6 |
